Reference: US7129398B2, “Reversible male sterility in transgenic plants by expression of a GA-insensitive mutant protein, gai” (Monsanto Technology LLC, priority 2001, dated 2006)

Test system: male sterile transgenic plants (pMON42169, TA29-gai)
Test: Fertility restoration of gai male sterile transgenic tobacco plants by chemical spray
Type: in vivo, Nicotiana tabacum
Details: for restoration of male fertility: aqueous 0.25% Sylgard 309; for Seed weight: mean of 5 seed sets ± SE
Method: Kanamycin resistant F1 seedlings were transferred to soil and grown to flowering stage. After male sterility in the first few flowers was observed, plants from each lines were divided into four groups to receive different treatments every other day. One group received 15 mg of kinetin (a synthetic cytokinin) (Sigma) per plant, while the other two groups received either 10 mg of GA3 (Sigma) or 10 mg of TDZ (Sigma) per plant. The chemicals are in an aqueous solution containing 0.25% of Sylgard 309 surfactant (Willbur-Ellis, Fresno, Calif.) and the last group received surfactant only. The applications continued for two weeks. In another experiment, F1 plants from several male sterile transgenic lines were selected based on resistance to kanamycin and grown to flowering to verify the inheritance of the male sterile phenotype. Each plant was then sprayed with a solution containing 15 mg of kinetin every other day for two weeks. The plants continued to develop male sterile flowers until 10 days after the first application of kinetin. At 10 days post-application, the flowers that developed were male fertile. Flowers from treated plants began visibly shedding pollen whereas untreated flowers remained sterile. Under greenhouse growth conditions, the transition from stage −3 to stage 12 for a tobacco floral bud occurred in approximately 10 days. It appeared that for effective fertility restoration, kinetin needed to be applied prior to stage −2, which coincided with the onset of the TA29 promoter.

[1] = F1 male sterile transgenic tobacco, 10 mg per plant every other day for two weeks

| Compound | restoration of anther development [1] | restoration of male fertility [1] | persistence of production of male fertile flowers post-application (15 mg per plant every other day for two weeks) | time after first application until developing flowers were male fertile (15 mg per plant every other day for two weeks, F1 male sterile transgenic tobacco lines) | restoration of male fertility (F1 male sterile transgenic tobacco, 15 mg per plant every other day for two weeks) | Seed weight (event 782 (S): selfing after fertility restoration) | Seed weight (event 790 (S): selfing after fertility restoration) | morphology and seed set of restored flowers (kinetin-restored flowers of male sterile transgenic tobacco) | difference in seed weight, selfed seed of restored flowers vs crossed seed of sterile flowers and selfed seed of wild-type flowers (lines 788 and 790) |
| --- | --- | --- | --- | --- | --- | --- | --- | --- | --- |
| C=C1C[C@]23C[C@@]1(O)CC[C@H]2[C@@]12C=C[C@H](O)[C@@](C)(C(=O)O1)[C@H]2[C@@H]3C(=O)O [GA3] | did not restore the anther development | remained male sterile | – | – | – | – | – | – | – |
| c1coc(CNc2ncnc3[nH]cnc23)c1 [kinetin] | – | – | 11 days | 10 days | shed pollen and set seeds | 113.0 ± 18.9 mg | 110.2 ± 13.5 mg | morphologically normal but also had typical seed sets | no significant difference |
| O=C(Nc1ccccc1)Nc1cnns1 [TDZ] | – | did not restore the fertility | – | – | – | – | – | – | – |
